Source: ChEMBL document CHEMBL3044827, “Synthesis and in vitro anti-Helicobacter pylori activity of 2-[(chlorobenzyl)thio]-5-(5-nitro-2-furyl)-1,3,4-thiadiazoles” (2008)

Tests used:
Format in all cases: functional
Conditions in all cases: read-out: DIZ
[1] = test system: Helicobacter pylori; experiment: Antibacterial activity against metronidazole-resistant Helicobacter pylori at 16 ug/disk after 3 to 5 days by paper disk diffusion method
[2] = test system: Helicobacter pylori; experiment: Antibacterial activity against metronidazole-sensitive Helicobacter pylori at 8 ug/disk after 3 to 5 days by paper disk diffusion method
[3] = test system: Helicobacter pylori; experiment: Antibacterial activity against metronidazole-resistant Helicobacter pylori at 8 ug/disk after 3 to 5 days by paper disk diffusion method
[4] = test system: Helicobacter pylori; experiment: Antibacterial activity against metronidazole-resistant Helicobacter pylori at 32 ug/disk after 3 to 5 days by paper disk diffusion method
[5] = test system: Helicobacter pylori; experiment: Antibacterial activity against metronidazole-sensitive Helicobacter pylori at 32 ug/disk after 3 to 5 days by paper disk diffusion method
[6] = test system: Helicobacter pylori; experiment: Antibacterial activity against metronidazole-sensitive Helicobacter pylori at 16 ug/disk after 3 to 5 days by paper disk diffusion method
[7] = test system: Helicobacter pylori; experiment: Antibacterial activity against Helicobacter pylori at 1 ug/disk after 3 to 5 days by paper disk diffusion method
[8] = test system: Helicobacter pylori; experiment: Antibacterial activity against Helicobacter pylori at 4 ug/disk after 3 to 5 days by paper disk diffusion method
[9] = test system: Helicobacter pylori; experiment: Antibacterial activity against Helicobacter pylori at 32 ug/disk after 3 to 5 days by paper disk diffusion method
[10] = test system: Helicobacter pylori; experiment: Antibacterial activity against Helicobacter pylori at 2 ug/disk after 3 to 5 days by paper disk diffusion method
[11] = test system: Helicobacter pylori; experiment: Antibacterial activity against Helicobacter pylori at 16 ug/disk after 3 to 5 days by paper disk diffusion method
[12] = test system: Helicobacter pylori; experiment: Antibacterial activity against Helicobacter pylori at 8 ug/disk after 3 to 5 days by paper disk diffusion method
[13] = test system: Helicobacter pylori; experiment: Antibacterial activity against Helicobacter pylori at 0.5 ug/disk after 3 to 5 days by paper disk diffusion method

Compound | zone of inhibition at 16 µg/disc [1] | zone of inhibition at 8 µg/disc [2] | zone of inhibition at 8 µg/disc [3] | zone of inhibition at 32 µg/disc [4] | zone of inhibition at 32 µg/disc [5] | zone of inhibition at 16 µg/disc [6] | zone of inhibition at 1 µg/disc [7] | zone of inhibition at 4 µg/disc [8] | zone of inhibition at 32 µg/disc [9] | zone of inhibition at 2 µg/disc [10] | zone of inhibition at 16 µg/disc [11] | zone of inhibition at 8 µg/disc [12] | zone of inhibition at 0.5 µg/disc [13]
O=[N+]([O-])c1ccc(-c2nnc(SCc3ccc(Cl)cc3Cl)s2)o1 | 6 mm | 13 mm | 6 mm | 6 mm | 15 mm | 15 mm | – | – | – | – | – | – | –
CC1(C)S[C@@H]2[C@H](NC(=O)[C@H](N)c3ccc(O)cc3)C(=O)N2[C@H]1C(=O)O [AMOXICILLIN] | – | – | – | – | – | – | 24.5 mm | – | – | – | – | – | –
O=[N+]([O-])c1ccc(-c2nnc(SCc3ccccc3)s2)o1 | 22 mm | 18 mm | 19 mm | 25 mm | 25 mm | 22 mm | 9.6 mm | 14.7 mm | 24.1 mm | 12.1 mm | 21 mm | 17.4 mm | 6.7 mm
Cc1ncc([N+](=O)[O-])n1CCO [METRONIDAZOLE] | – | – | – | – | – | – | – | – | – | – | – | 16.3 mm | –
O=[N+]([O-])c1ccc(-c2nnc(SCc3cccc(Cl)c3)s2)o1 | 22 mm | 21 mm | 20 mm | 25 mm | 28 mm | 25 mm | 13.1 mm | 18.4 mm | 25.8 mm | 15.8 mm | 24.1 mm | 20.6 mm | 10.3 mm
O=[N+]([O-])c1ccc(-c2nnc(SCc3ccccc3Cl)s2)o1 | 20 mm | 19 mm | 18 mm | 22 mm | 21 mm | 21 mm | 8.3 mm | 11.3 mm | 21.4 mm | 9.4 mm | 18.9 mm | 17.1 mm | 6.8 mm
O=[N+]([O-])c1ccc(-c2nnc(SCc3cccc(Cl)c3Cl)s2)o1 | 6 mm | 15 mm | 6 mm | 17 mm | 16 mm | 16 mm | – | – | – | – | – | – | –
O=[N+]([O-])c1ccc(-c2nnc(SCc3c(Cl)cccc3Cl)s2)o1 | 21 mm | 21 mm | 20 mm | 24 mm | 26 mm | 23 mm | 10.9 mm | 15.2 mm | 23.7 mm | 13.1 mm | 21.9 mm | 19.4 mm | 8.7 mm
O=[N+]([O-])c1ccc(-c2nnc(SCc3ccc(Cl)cc3)s2)o1 | 17 mm | 6 mm | 16 mm | 17 mm | 19 mm | 16 mm | – | – | – | – | – | – | –
O=[N+]([O-])c1ccc(-c2nnc(SCc3ccc(Cl)c(Cl)c3)s2)o1 | 6 mm | 11 mm | 6 mm | 12 mm | 15 mm | 13 mm | – | – | – | – | – | – | –
